Patent publication US4110327A, “2,3 Diketo-piperazinocarbonylamino alkanoic acids and derivatives” (Toyama Chemical Co., Ltd., priority 1974, dated 1978)
Values after ≈ are worked out from the molar mass of the structure shown. Each block holds one compound with its values, some of them ahead of it.

Key:
Assay type in all cases: cell-based
Proteus vulgaris = experiment: MIC against clinical isolates; details: clinical isolate, unit assumed
Proteus mirabilis = experiment: MIC against clinical isolates; details: clinical isolate, unit assumed
Escherichia coli = experiment: MIC against clinical isolates; details: unit assumed
Proteus rettgeri = experiment: MIC against clinical isolates; details: clinical isolate, unit assumed
Klebsiella pneumoniae [1] = experiment: MIC against clinical isolates; details: unit assumed
[2] = test system: Staphylococcus aureus 209p; experiment: MIC against standard strain, plate method; details: unit assumed
Method in brief: (§1)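 Minimum inhibitory concentrations were determined on agar plates of heart infusion medium (pH 7.4) inoculated with 10^4 cells per plate.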

Escherichia coli NIHJ = experiment: MIC against standard strain, plate method; details: unit assumed
Method in brief: as §1

Proteus vulgaris 3027 = experiment: MIC against standard strain, plate method; details: Proteus vulgaris 3027, standard strain; unit assumed
Method in brief: as §1

Klebsiella pneumoniae [3] = experiment: MIC against standard strain, plate method; details: unit assumed
Method in brief: as §1

[4] = test system: Pseudomonas aeruginosa I.F.O.; experiment: MIC against standard strain, plate method; details: unit assumed
Method in brief: as §1

Proteus morganii = experiment: MIC against clinical isolates; details: clinical isolate, unit assumed
Pseudomonas aeruginosa = experiment: MIC against clinical isolates; details: unit assumed
Staphylococcus aureus = experiment: MIC against clinical isolates; details: unit assumed

- MIC (Proteus vulgaris): 1.56 µg/mL (≈ 2.53 µM)
- MIC (Proteus mirabilis): 3.13 µg/mL (≈ 5.08 µM)
- MIC (Escherichia coli; clinical isolate GN 3435): 3.13 µg/mL (≈ 5.08 µM)
- MIC (Escherichia coli; clinical isolate GN 3452): 12.5 µg/mL (≈ 20.3 µM)
- MIC (Escherichia coli; clinical isolate GN 3465): 25 µg/mL (≈ 40.6 µM)
- MIC (Escherichia coli; clinical isolate GN 3481): 3.13 µg/mL (≈ 5.08 µM)
- MIC (Escherichia coli; clinical isolate GN 3611): 100 µg/mL (≈ 162 µM)
- MIC (Escherichia coli; clinical isolate K-1): 3.13 µg/mL (≈ 5.08 µM)
- MIC (Escherichia coli; clinical isolate K-2): 6.25 µg/mL (≈ 10.2 µM)
- MIC (Escherichia coli; clinical isolate K-3): 50 µg/mL (≈ 81.2 µM)
- MIC (Escherichia coli; clinical isolate K-4): 6.25 µg/mL (≈ 10.2 µM)
- MIC (Proteus rettgeri): 3.13 µg/mL (≈ 5.08 µM)
- MIC (Klebsiella pneumoniae [1]; clinical isolate GN 917): 3.13 µg/mL (≈ 5.08 µM)
- MIC (Klebsiella pneumoniae [1]; clinical isolate GN 4081): 6.25 µg/mL (≈ 10.2 µM)
- MIC (Klebsiella pneumoniae [1]; clinical isolate GN 4117): 6.25 µg/mL (≈ 10.2 µM)
- MIC [2]: < 0.79 µg/mL
- MIC (Escherichia coli NIHJ): < 0.79 µg/mL
- MIC (Proteus vulgaris 3027): 1.57 µg/mL (≈ 2.55 µM)
- MIC (Klebsiella pneumoniae [3]): < 0.79 µg/mL
- MIC [4]: 25 µg/mL (≈ 40.6 µM)
- MIC (Proteus morganii): 3.13 µg/mL (≈ 5.08 µM)
- MIC (Pseudomonas aeruginosa; clinical isolate GN 82): 50 µg/mL (≈ 81.2 µM)
- MIC (Pseudomonas aeruginosa; clinical isolate GN 163): 25 µg/mL (≈ 40.6 µM)
- MIC (Pseudomonas aeruginosa; clinical isolate GN 221): 25 µg/mL (≈ 40.6 µM)
- MIC (Pseudomonas aeruginosa; clinical isolate GN 244): 50 µg/mL (≈ 81.2 µM)
- MIC (Pseudomonas aeruginosa; clinical isolate GN 376): 50 µg/mL (≈ 81.2 µM)
- MIC (Pseudomonas aeruginosa; clinical isolate GN 383): 25 µg/mL (≈ 40.6 µM)
- MIC (Pseudomonas aeruginosa; clinical isolate GN 1035): 100 µg/mL (≈ 162 µM)
- MIC (Pseudomonas aeruginosa; clinical isolate GN 1091): 50 µg/mL (≈ 81.2 µM)
- MIC (Pseudomonas aeruginosa; clinical isolate GN 2565): 50 µg/mL (≈ 81.2 µM)
- MIC (Pseudomonas aeruginosa; clinical isolate GN 2987): 25 µg/mL (≈ 40.6 µM)
- MIC (Pseudomonas aeruginosa; clinical isolate S-1): 100 µg/mL (≈ 162 µM)
- MIC (Pseudomonas aeruginosa; clinical isolate S-2): 100 µg/mL (≈ 162 µM)
- MIC (Pseudomonas aeruginosa; clinical isolate S-3): 100 µg/mL (≈ 162 µM)
- MIC (Pseudomonas aeruginosa; clinical isolate S-4): 100 µg/mL (≈ 162 µM)
- MIC (Staphylococcus aureus; clinical isolate F-1): 3.13 µg/mL (≈ 5.08 µM)
- MIC (Staphylococcus aureus; clinical isolate F-2): 0.78 µg/mL (≈ 1.27 µM)
- MIC (Staphylococcus aureus; clinical isolate F-3): 1.56 µg/mL (≈ 2.53 µM)
- MIC (Staphylococcus aureus; clinical isolate F-4): 1.56 µg/mL (≈ 2.53 µM)
- MIC (Staphylococcus aureus; clinical isolate F-5): 12.5 µg/mL (≈ 20.3 µM)
- MIC (Staphylococcus aureus; clinical isolate MS 8588): 1.56 µg/mL (≈ 2.53 µM)
- MIC (Staphylococcus aureus; clinical isolate MS 8596): 1.56 µg/mL (≈ 2.53 µM)
- MIC (Staphylococcus aureus; clinical isolate MS 8619): 0.78 µg/mL (≈ 1.27 µM)
- MIC (Staphylococcus aureus; clinical isolate MS 8684): 1.56 µg/mL (≈ 2.53 µM)
- MIC (Staphylococcus aureus; clinical isolate MS 8713): 1.56 µg/mL (≈ 2.53 µM)
Structure (SMILES): CN1CCN(C(=O)NC(C(=O)NC2C(=O)N3C(C(=O)O)=C(CSc4nnnn4C)CSC23)c2ccccc2)C(=O)C1=O (single isomer, unassigned) [compound 63]

Structure (SMILES): CC(=O)OCC1=C(C(=O)O)N2C(=O)[C@@H](NC(=O)[C@H](N)c3ccccc3)[C@H]2SC1 [Sodium Cephaloglycin, SodiumCephaloglycin, reference compound]
- MIC (Proteus vulgaris): 50 µg/mL
- MIC (Proteus mirabilis): 3.13 µg/mL
- MIC (Escherichia coli; clinical isolate GN 3435): 1.56 µg/mL
- MIC (Escherichia coli; clinical isolate GN 3452): 3.13 µg/mL
- MIC (Escherichia coli; clinical isolate GN 3465): 12.5 µg/mL
- MIC (Escherichia coli; clinical isolate GN 3481): 3.13 µg/mL
- MIC (Escherichia coli; clinical isolate GN 3611): 25 µg/mL
- MIC (Escherichia coli; clinical isolate K-1): 1.56 µg/mL
- MIC (Escherichia coli; clinical isolate K-2): 1.56 µg/mL
- MIC (Escherichia coli; clinical isolate K-3): 25 µg/mL
- MIC (Escherichia coli; clinical isolate K-4): 12.5 µg/mL
- MIC (Proteus rettgeri): 50 µg/mL
- MIC (Klebsiella pneumoniae [1]; clinical isolate GN 917): 1.56 µg/mL
- MIC (Klebsiella pneumoniae [1]; clinical isolate GN 4081): 3.13 µg/mL
- MIC (Klebsiella pneumoniae [1]; clinical isolate GN 4117): 3.13 µg/mL
- MIC [2]: < 1.57 µg/mL
- MIC (Escherichia coli NIHJ): < 1.57 µg/mL
- MIC (Proteus vulgaris 3027): < 1.57 µg/mL
- MIC (Klebsiella pneumoniae [3]): 100 µg/mL
- MIC [4]: > 200 µg/mL
- MIC (Proteus morganii): 1.56 µg/mL
- MIC (Pseudomonas aeruginosa; clinical isolate GN 82): > 200 µg/mL
- MIC (Pseudomonas aeruginosa; clinical isolate GN 163): > 200 µg/mL
- MIC (Pseudomonas aeruginosa; clinical isolate GN 221): > 200 µg/mL
- MIC (Pseudomonas aeruginosa; clinical isolate GN 244): > 200 µg/mL
- MIC (Pseudomonas aeruginosa; clinical isolate GN 376): > 200 µg/mL
- MIC (Pseudomonas aeruginosa; clinical isolate GN 383): > 200 µg/mL
- MIC (Pseudomonas aeruginosa; clinical isolate GN 1035): > 200 µg/mL
- MIC (Pseudomonas aeruginosa; clinical isolate GN 1091): > 200 µg/mL
- MIC (Pseudomonas aeruginosa; clinical isolate GN 2565): > 200 µg/mL
- MIC (Pseudomonas aeruginosa; clinical isolate GN 2987): > 200 µg/mL
- MIC (Pseudomonas aeruginosa; clinical isolate S-1): > 200 µg/mL
- MIC (Pseudomonas aeruginosa; clinical isolate S-2): > 200 µg/mL
- MIC (Pseudomonas aeruginosa; clinical isolate S-3): > 200 µg/mL
- MIC (Pseudomonas aeruginosa; clinical isolate S-4): > 200 µg/mL
- MIC (Staphylococcus aureus; clinical isolate F-1): 3.13 µg/mL
- MIC (Staphylococcus aureus; clinical isolate F-2): 1.56 µg/mL
- MIC (Staphylococcus aureus; clinical isolate F-3): 1.56 µg/mL
- MIC (Staphylococcus aureus; clinical isolate F-4): 3.13 µg/mL
- MIC (Staphylococcus aureus; clinical isolate F-5): 25 µg/mL
- MIC (Staphylococcus aureus; clinical isolate MS 8588): 3.13 µg/mL
- MIC (Staphylococcus aureus; clinical isolate MS 8596): 1.56 µg/mL
- MIC (Staphylococcus aureus; clinical isolate MS 8619): 1.56 µg/mL
- MIC (Staphylococcus aureus; clinical isolate MS 8684): 1.56 µg/mL
- MIC (Staphylococcus aureus; clinical isolate MS 8713): 3.13 µg/mL

- MIC (Proteus vulgaris): 0.8 µg/mL (≈ 1.39 µM)
- MIC (Proteus mirabilis): 1.56 µg/mL (≈ 2.72 µM)
- MIC (Escherichia coli; clinical isolate GN 3435): 3.13 µg/mL (≈ 5.46 µM)
- MIC (Escherichia coli; clinical isolate GN 3452): 6.25 µg/mL (≈ 10.9 µM)
- MIC (Escherichia coli; clinical isolate GN 3465): 50 µg/mL (≈ 87.2 µM)
- MIC (Escherichia coli; clinical isolate GN 3481): 3.13 µg/mL (≈ 5.46 µM)
- MIC (Escherichia coli; clinical isolate GN 3611): 200 µg/mL (≈ 349 µM)
- MIC (Escherichia coli; clinical isolate K-1): 3.13 µg/mL (≈ 5.46 µM)
- MIC (Escherichia coli; clinical isolate K-2): 6.25 µg/mL (≈ 10.9 µM)
- MIC (Escherichia coli; clinical isolate K-3): 100 µg/mL (≈ 174 µM)
- MIC (Escherichia coli; clinical isolate K-4): 6.25 µg/mL (≈ 10.9 µM)
- MIC (Proteus rettgeri): 3.13 µg/mL (≈ 5.46 µM)
- MIC (Klebsiella pneumoniae [1]; clinical isolate GN 917): 6.25 µg/mL (≈ 10.9 µM)
- MIC (Klebsiella pneumoniae [1]; clinical isolate GN 4081): 12.5 µg/mL (≈ 21.8 µM)
- MIC (Klebsiella pneumoniae [1]; clinical isolate GN 4117): 12.5 µg/mL (≈ 21.8 µM)
- MIC [2]: < 0.79 µg/mL
- MIC (Escherichia coli NIHJ): < 0.79 µg/mL
- MIC (Proteus vulgaris 3027): 3.13 µg/mL (≈ 5.46 µM)
- MIC (Klebsiella pneumoniae [3]): 3.13 µg/mL (≈ 5.46 µM)
- MIC [4]: 25 µg/mL (≈ 43.6 µM)
- MIC (Proteus morganii): 1.56 µg/mL (≈ 2.72 µM)
- MIC (Pseudomonas aeruginosa; clinical isolate GN 82): 25 µg/mL (≈ 43.6 µM)
- MIC (Pseudomonas aeruginosa; clinical isolate GN 163): 25 µg/mL (≈ 43.6 µM)
- MIC (Pseudomonas aeruginosa; clinical isolate GN 221): 6.25 µg/mL (≈ 10.9 µM)
- MIC (Pseudomonas aeruginosa; clinical isolate GN 244): 25 µg/mL (≈ 43.6 µM)
- MIC (Pseudomonas aeruginosa; clinical isolate GN 376): 12.5 µg/mL (≈ 21.8 µM)
- MIC (Pseudomonas aeruginosa; clinical isolate GN 383): 12.5 µg/mL (≈ 21.8 µM)
- MIC (Pseudomonas aeruginosa; clinical isolate GN 1035): 100 µg/mL (≈ 174 µM)
- MIC (Pseudomonas aeruginosa; clinical isolate GN 1091): 25 µg/mL (≈ 43.6 µM)
- MIC (Pseudomonas aeruginosa; clinical isolate GN 2565): 50 µg/mL (≈ 87.2 µM)
- MIC (Pseudomonas aeruginosa; clinical isolate GN 2987): 25 µg/mL (≈ 43.6 µM)
- MIC (Pseudomonas aeruginosa; clinical isolate S-1): 50 µg/mL (≈ 87.2 µM)
- MIC (Pseudomonas aeruginosa; clinical isolate S-2): 50 µg/mL (≈ 87.2 µM)
- MIC (Pseudomonas aeruginosa; clinical isolate S-3): 50 µg/mL (≈ 87.2 µM)
- MIC (Pseudomonas aeruginosa; clinical isolate S-4): 50 µg/mL (≈ 87.2 µM)
- MIC (Staphylococcus aureus; clinical isolate F-1): 3.13 µg/mL (≈ 5.46 µM)
- MIC (Staphylococcus aureus; clinical isolate F-2): 1.56 µg/mL (≈ 2.72 µM)
- MIC (Staphylococcus aureus; clinical isolate F-3): 1.56 µg/mL (≈ 2.72 µM)
- MIC (Staphylococcus aureus; clinical isolate F-4): 3.13 µg/mL (≈ 5.46 µM)
- MIC (Staphylococcus aureus; clinical isolate F-5): 50 µg/mL (≈ 87.2 µM)
- MIC (Staphylococcus aureus; clinical isolate MS 8588): 1.56 µg/mL (≈ 2.72 µM)
- MIC (Staphylococcus aureus; clinical isolate MS 8596): 1.56 µg/mL (≈ 2.72 µM)
- MIC (Staphylococcus aureus; clinical isolate MS 8619): 1.56 µg/mL (≈ 2.72 µM)
- MIC (Staphylococcus aureus; clinical isolate MS 8684): 1.56 µg/mL (≈ 2.72 µM)
- MIC (Staphylococcus aureus; clinical isolate MS 8713): 1.56 µg/mL (≈ 2.72 µM)
Structure (SMILES): CCN1CCN(C(=O)NC(C(=O)NC2C(=O)N3C(C(=O)O)=C(COC(C)=O)CSC23)c2ccccc2)C(=O)C1=O (stereo not drawn) [compound 61]
